ChEMBL document CHEMBL5143519, “Exploring disordered loops in DprE1 provides a functional site to combat drug-resistance in Mycobacterium strains” (Eur J Med Chem, 2022)
In brackets after ≈: the same amount, converted by molar mass. Activity calls are given as the source filed them. The calls are words filed in the database; no cut-off is given here.

Columns and labels:
[1] = test system: Mycolicibacterium smegmatis; assay: Antimycobacterial activity against Mycobacterium smegmatis wild type DprE1 assessed as inhibition of bacterial growth incubated for 7 days by microplate alamar blue assay; type: functional; conditions: 168 h, time 7 day
[2] = target: T1, Decaprenylphosphoryl-beta-D-ribose oxidase (Mycobacterium tuberculosis (strain ATCC 25618 / H37Rv), UniProt P9WJF1); assay: Inhibition of Mycobacterium tuberculosis wild type DprE1 expressed in Escherichia coli BL21 DE3 assessed as formation of resorufin using FPR as substrate incubated for 10 mins by Amplex Red dye microplate assay
T1 sequence (P9WJF1 whole entry): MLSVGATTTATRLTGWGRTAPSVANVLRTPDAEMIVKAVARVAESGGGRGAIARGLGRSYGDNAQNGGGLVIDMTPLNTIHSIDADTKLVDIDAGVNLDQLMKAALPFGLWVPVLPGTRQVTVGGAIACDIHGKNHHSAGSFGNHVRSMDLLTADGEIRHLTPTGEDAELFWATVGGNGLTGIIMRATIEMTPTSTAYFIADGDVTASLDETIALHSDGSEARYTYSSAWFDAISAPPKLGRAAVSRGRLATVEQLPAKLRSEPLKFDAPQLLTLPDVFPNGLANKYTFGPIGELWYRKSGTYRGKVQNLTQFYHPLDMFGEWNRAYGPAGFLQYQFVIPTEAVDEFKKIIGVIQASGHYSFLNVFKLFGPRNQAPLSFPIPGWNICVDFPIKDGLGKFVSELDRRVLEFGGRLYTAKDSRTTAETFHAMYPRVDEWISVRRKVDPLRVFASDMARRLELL

[3] = test system: Mycobacterium tuberculosis; assay: Antimycobacterial activity against Mycobacterium tuberculosis H37Rv assessed as inhibition of bacterial growth incubated for 7 days by microplate alamar blue assay; type: functional; conditions: 168 h, time 7 day
[4] = test system: Mycolicibacterium smegmatis; assay: Antimycobacterial activity against Mycobacterium smegmatis mc2155 assessed as inhibition of bacterial growth incubated for 7 days by microplate alamar blue assay; type: functional; conditions: mc2155, 168 h, time 7 day
[5] = test system: Mycobacterium tuberculosis; assay: Antimycobacterial activity against Mycobacterium tuberculosis H37Rv assessed as reduction in bacterial colony forming units at 20 times MIC concentration measured after 21 days by time kill assay; type: functional; conditions: time 21 day
[6] = test system: Mycobacterium tuberculosis; assay: Antimycobacterial activity against Mycobacterium tuberculosis H37Rv assessed as reduction in bacterial colony forming units at 20 times MIC concentration measured after 7 days by time kill assay; type: functional, organism-based; conditions: time 7.0 day
[7] = test system: Mycobacterium tuberculosis; assay: Antimycobacterial activity against Mycobacterium tuberculosis H37Rv infected in mouse macrophage J774A.1 cell assessed as reduction in bacterial colony forming units incubated for 21 days; type: functional; conditions: time 21 day

CCOC(=O)NC(=O)c1ccsc1NC(=O)c1nc2cnccc2s1
MIC [1]: 0.089 µM (≈ 0.0335 µg/mL)

CCOC(=O)NC(=O)c1ccsc1NC(=O)c1ccc(C#N)cc1
IC50 [2]: > 64 µM | MIC [3]: > 300 µM

CCOC(=O)NC(=O)c1ccsc1NC(=O)c1ccc(C(C)=O)cc1
IC50 [2]: 36.4 µM | MIC [3]: > 300 µM

N#Cc1ccc(C(=O)Nc2sccc2C(=O)NC(=O)OCC2CC2)cc1
IC50 [2]: 18.9 µM | MIC [3]: > 250 µM

O=C(NC(=O)c1ccsc1NC(=O)c1nc2ccccc2s1)OCC1CC1
IC50 [2]: 0.01 µM | MIC [3]: 0.77 µM (≈ 0.309 µg/mL) | MIC [4]: 12.4 µM (≈ 4.99 µg/mL) | Activity [5]: 3 log10CFU/ml | Activity [6]: Active | Activity [7]: 1.1 log10CFU

O=C(NC(=O)c1ccsc1NC(=O)c1nc2ccccc2s1)OCC1CCC1
IC50 [2]: 0.098 µM | MIC [3]: 3.01 µM (≈ 1.25 µg/mL) | MIC [4]: 24.1 µM (≈ 9.99 µg/mL) | Activity [7]: 0.9 log10CFU

CO[C@H]1/C=C/O[C@@]2(C)Oc3c(C)c(O)c4c(O)c(c(/C=N/N5CCN(C)CC5)c(O)c4c3C2=O)NC(=O)/C(C)=C\C=C\[C@H](C)[C@H](O)[C@@H](C)[C@@H](O)[C@@H](C)[C@H](OC(C)=O)[C@@H]1C [RIFAMPIN]
MIC [3]: 0.11 µM (≈ 0.0905 µg/mL) | MIC [4]: 0.35 µM (≈ 0.288 µg/mL) | Activity [5]: 3 log10CFU/ml | Activity [7]: 1.1 log10CFU

CCOC(=O)NC(=O)c1ccsc1NC(=O)c1ccc(C#N)cn1
IC50 [2]: 41.2 µM | MIC [3]: > 300 µM

CC(=O)c1ccc(C(=O)Nc2sccc2C(=O)NC(=O)OCC2CC2)cc1
IC50 [2]: 1.21 µM | MIC [3]: 51.8 µM (≈ 20 µg/mL)

N#Cc1ccc(C(=O)Nc2sccc2C(=O)NC(=O)OCC2CC2)nc1
IC50 [2]: 11.5 µM | MIC [3]: 216 µM (≈ 79.8 µg/mL)

O=C(NC(=O)c1ccsc1NC(=O)c1nc2ccccc2s1)OC1CCC1
IC50 [2]: 18.6 µM | MIC [3]: > 250 µM

O=C(NC(=O)c1ccsc1NC(=O)c1nc2ccccc2s1)OCC1CCCCC1
IC50 [2]: > 64 µM | MIC [3]: > 250 µM

O=C(NC(=O)c1ccsc1NC(=O)c1nc2ccccc2s1)OCC1CCCC1
IC50 [2]: 22.4 µM | MIC [3]: > 250 µM

CCOC(=O)NC(=O)c1cc(F)sc1NC(=O)c1nc2ccccc2s1
MIC [1]: 0.046 µM (≈ 0.0181 µg/mL)

CCOC(=O)NC(=O)c1ccsc1NC(=O)c1nc2ccccc2s1
IC50 [2]: 0.053 µM | MIC [3]: 1.68 µM (≈ 0.631 µg/mL) | MIC [4]: 33.2 µM (≈ 12.5 µg/mL) | Activity [5]: 3 log10CFU/ml | Activity [7]: 0.6 log10CFU | MIC [1]: 0.23 µM (≈ 0.0863 µg/mL)
